In patent publication US10689383B2, “Optionally fused heterocyclyl-substituted derivatives of pyrimidine useful for the treatment of inflammatory, metabolic, oncologic and autoimmune diseases” (NUEVOLUTION A/S, priority 2014, dated 2020):
pIC50: −log10 of the molar value.

Target: T1, human RORγt (Ligand Binding Domain) (Homo sapiens, UniProt P51449)
T1 construct: purchased Crelux (Planegg, Germany) batch no PC5032-1
T1 sequence (P51449 269-508 limits assumed): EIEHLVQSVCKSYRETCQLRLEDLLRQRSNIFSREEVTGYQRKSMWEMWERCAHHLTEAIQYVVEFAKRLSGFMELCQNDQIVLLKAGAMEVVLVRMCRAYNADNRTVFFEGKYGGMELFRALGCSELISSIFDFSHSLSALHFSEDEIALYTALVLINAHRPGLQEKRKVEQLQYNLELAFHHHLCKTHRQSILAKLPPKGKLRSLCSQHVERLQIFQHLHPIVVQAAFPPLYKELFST
Assay: Fluorescence Polarization (FP) Assay
Conditions: Fluorescence Polarization (FP) Assay; values given as upper bounds of activity ranges; read-out: FP activity range
Method: The activity of the compounds was evaluated using a Fluorescence Polarization (FP) Assay and, in most cases, a Th17 Assay and/or RORγ Reporter assay (also referred to as Gal4 assay). The FP assay is an in vitro assay monitoring binding within the ligand binding pocket. The RORγ and the Th17 assays are both cell-based assays monitoring functional activity of the compound assayed.
The total volume was 25 μl, in a black Perkin Elmer OptiPlate. As negative control, 1 μl DMSO was used. […] The probe is a fluorescently labeled (TAMRA) RORγt ligand identified by Nuevolution with a total molecular weight of 910 g/mole as shown in Graph A in FIG. 1.

Row | pIC50 | SMILES
1 | > 6.30 | CC(C)(C)C[C@@H](Nc1ncnc(N2CCC[C@@H]2c2ccc(C(F)(F)F)cc2)c1F)C(N)=O (single isomer, unassigned) [Example 5, (2R)-2-[[5-fluoro-6-[(2R)-2-[4-(trifluoromethyl)phenyl]pyrrolidin-1-yl]pyrimidin-4-yl]amino]-4,4-dimethyl-pentanamide or (2R)-2-[[5-fluoro-6-[(2S)-2-[4-(trifluoromethyl)phenyl]pyrrolidin-1-yl]pyrimidin-4-yl]amino]-4,4-dimethyl-pentanamide]
2 | > 5.00 | Fc1c(NCC2CCC2)ncnc1N1CCCC1c1ccc(C(F)(F)F)cc1 (centres unmarked) [Example 151, N-(cyclobutylmethyl)-5-fluoro-6-[2-[4-(trifluoromethyl)phenyl]pyrrolidin-1-yl]pyrimidin-4-amine]
3 | > 6.00 | NS(=O)(=O)Cc1ccc(CNc2ncnc(N3CCCC3c3ccc(C(F)(F)F)cc3)c2F)cc1 (centres unmarked) [Example 46, [4-[[[5-fluoro-6-[2-[4-(trifluoromethyl)phenyl]pyrrolidin-1-yl]pyrimidin-4-yl]amino]methyl]phenyl]methane-sulfonamide]
4 | > 5.00 | Fc1c(NCc2ccc(OCC3CCCO3)cc2)ncnc1N1CCCC1c1ccc(C(F)(F)F)cc1 (centres unmarked) [Example 59, 5-fluoro-N-[[4-(tetrahydrofuran-2-ylmethoxy)phenyl]methyl]-6-[2-[4-(trifluoromethyl)phenyl]pyrrolidin-1-yl]pyrimidin-4-amine]
5 | > 5.00 | Oc1nnc(CNc2ncnc(N3CCCC3c3ccc(C(F)(F)F)cc3)c2F)o1 (centres unmarked) [Example 214, 5-(((5-fluoro-6-(2-(4-(trifluoromethyl)phenyl)pyrrolidin-1-yl)pyrimidin-4-yl)amino)methyl)-1,3,4-oxadiazol-2-ol]
6 | > 5.70 | CNC(=O)Cc1ccc(CNc2ncnc(N3CCOC[C@@H]3c3ccc(C(F)(F)F)cc3)c2F)cc1 [Example 244, 2-[4-[[[5-fluoro-6-[(3S)-3-[4-(trifluoromethyl)phenyl]morpholin-4-yl]pyrimidin-4-yl]amino]methyl]phenyl]-N-methyl-acetamide]
7 | > 5.00 | O=S1(=O)CCCC1CNc1ncnc(N2CCC[C@@H]2c2ccc(C(F)(F)F)cc2)c1F (stereo partly drawn) [Example 170, N-[(1,1-dioxothiolan-2-yl)methyl]-5-fluoro-6-[(2R)-2-[4-(trifluoromethyl)phenyl]pyrrolidin-1-yl]pyrimidin-4-amine]
8 | > 5.00 | CC1(C)NC(=O)N(Cc2ccc(CNc3ncnc(N4CCCC4c4ccc(C(F)(F)F)cc4)c3F)cc2)C1=O (centres unmarked) [Example 45, 3-[[4-[[[5-fluoro-6-[2-[4-(trifluoromethyl)phenyl]pyrrolidin-1-yl]pyrimidin-4-yl]amino]methyl]phenyl]methyl]-5,5-dimethyl-imidazolidine-2,4-dione]
9 | > 5.00 | Cc1nn(C)cc1C1CCCN1c1ncnc(NCc2ccc(CC(N)=O)cc2)c1F (centres unmarked) [Example 317, 2-[4-[[[6-[2-(1,3-dimethylpyrazol-4-yl)pyrrolidin-1-yl]-5-fluoro-pyrimidin-4-yl]amino]methyl]phenyl]acetamide]
10 | > 5.70 | CCc1ccc(CN(C)c2ncnc(N3CCCC3c3ccc(C(F)(F)F)cc3)c2F)nc1 (centres unmarked) [Example 136, N-[(5-ethyl-2-pyridyl)methyl]-5-fluoro-N-methyl-6-[2-[4-(trifluoromethyl)phenyl]pyrrolidin-1-yl]pyrimidin-4-amine]
11 | > 5.00 | CNC(=O)c1cccc(CNc2ncnc(N3CCCC3c3ccc(C(F)(F)F)cc3)c2F)c1 (centres unmarked) [Example 144, 3-[[[5-fluoro-6-[2-[4-(trifluoromethyl)phenyl]pyrrolidin-1-yl]pyrimidin-4-yl]amino]methyl]-N-methyl-benzamide]
12 | > 5.70 | COc1cc(CNc2ncnc(N3CCCC3c3ccc(C(F)(F)F)cc3)c2F)cc(OC)c1 (centres unmarked) [Example 142, N-[(3,5-dimethoxyphenyl)methyl]-5-fluoro-6-[2-[4-(trifluoromethyl)phenyl]pyrrolidin-1-yl]pyrimidin-4-amine]
13 | > 6.30 | NC(=O)Cc1ccc(CNc2ncnc(N3CCCC3c3nc4ccccc4s3)c2F)cc1 (centres unmarked) [Example 310, 2-[4-[[[6-[2-(1,3-benzothiazol-2-yl)pyrrolidin-1-yl]-5-fluoro-pyrimidin-4-yl]amino]methyl]phenyl]acetamide]
14 | > 5.70 | CS(=O)(=O)c1ccc(Cn2ccc3c(N4CCOC[C@@H]4c4ccc(OC(F)(F)F)cc4)ncnc32)cn1 [Example 329, (3S)-4-[7-[(6-methylsulfonyl-3-pyridyl)methyl]pyrrolo[2,3-d]pyrimidin-4-yl]-3-[4-(trifluoromethoxy)phenyl] morpholine]
15 | > 5.00 | CN(C)C(=O)c1cccc(CNc2ncnc(N3CCCC3c3ccc(C(F)(F)F)cc3)c2F)c1 (centres unmarked) [Example 145, 3-[[[5-fluoro-6-[2-[4-(trifluoromethyl)phenyl]pyrrolidin-1-yl]pyrimidin-4-yl]amino]methyl]-N,N-dimethyl-benzamide]
16 | > 6.30 | CC(C)C1CCC(CNc2ncnc(N3CCC[C@@H]3c3ccc(C(F)(F)F)cc3)c2F)CC1 (stereo partly drawn) [Example 178, 5-fluoro-N-[(4-isopropylcyclohexyl)methyl]-6-[(2R)-2-[4-(trifluoromethyl)phenyl]pyrrolidin-1-yl]pyrimidin-4-amine]
17 | > 5.70 | CS(=O)(=O)N1CCOC(CNc2ncnc(N3CCOC[C@@H]3c3ccc(C(F)(F)F)cc3)c2F)C1 (stereo partly drawn) [Example 309, 5-fluoro-N-[(4-methylsulfonylmorpholin-2-yl)methyl]-6-[(3S)-3-[4-(trifluoromethyl)phenyl]morpholin-4-yl]pyrimidin-4-amine]
18 | > 6.30 | Fc1c(NCc2ccc(-c3nnn[nH]3)cc2)ncnc1N1CCCC1c1ccc(C(F)(F)F)cc1 (centres unmarked) [Example 138, 5-fluoro-N-[[4-(1H-tetrazol-5-yl)phenyl]methyl]-6-[2-[4-(trifluoromethyl)phenyl]pyrrolidin-1-yl]pyrimidin-4-amine]
19 | > 5.00 | Cc1nc(C2CCCN2c2ncnc(NCc3ccc(CC(N)=O)cc3)c2F)no1 (centres unmarked) [Example 314, 2-[4-[[[5-fluoro-6-[2-(5-methyl-1,2,4-oxadiazol-3-yl)pyrrolidin-1-yl]pyrimidin-4-yl]amino]methyl]phenyl]acetamide]
20 | > 5.00 | O=C1CCC(CNc2ncnc(N3CCCC3c3ccc(C(F)(F)F)cc3)c2F)N1 (centres unmarked) [Example 108, 5-[[[5-fluoro-6-[2-[4-(trifluoromethyl)phenyl]pyrrolidin-1-yl]pyrimidin-4-yl]amino]methyl]pyrrolidin-2-one]
21 | > 5.00 | Fc1c(NCC2CCCC2)ncnc1N1CCC[C@@H]1c1ccc(C(F)(F)F)cc1 [Example 218, N-(cyclopentylmethyl)-5-fluoro-6-[(2R)-2-[4-(trifluoromethyl)phenyl]pyrrolidin-1-yl]pyrimidin-4-amine]
22 | > 5.00 | O=C(O)C1(CNc2ncnc(N3CCOCC3c3ccc(C(F)(F)F)cc3)c2F)CCOCC1 (centres unmarked) [Example 268, 4-[[[5-fluoro-6-[3-[4-(trifluoromethyl)phenyl]morpholin-4-yl]pyrimidin-4-yl]amino]methyl]tetrahydropyran-4-carboxylic acid]
23 | > 6.30 | CC(C)(C)CC(Nc1ncnc(N2CCCC2c2ccc3ncccc3c2)c1F)C(N)=O (stereo in doubt) [Example 23, (2R)-2-[[5-fluoro-6-[2-(6-quinolyl)pyrrolidin-1-yl]pyrimidin-4-yl]amino]-4,4-dimethyl-pentanamide]
24 | > 5.00 | CC(C)(C)CCNc1ncnc(N2CCCC2c2ccc(C(F)(F)F)cc2)c1F (centres unmarked) [Example 21, N-(3,3-dimethylbutyl)-5-fluoro-6-[2-[4-(trifluoromethyl)phenyl]pyrrolidin-1-yl]pyrimidin-4-amine]
25 | > 5.00 | CC(C)(C)C1OCCCC1CNc1ncnc(N2CCC[C@@H]2c2ccc(C(F)(F)F)cc2)c1F (stereo partly drawn) [Example 175, N-[(2-tert-butyltetrahydropyran-3-yl)methyl]-5-fluoro-6-[(2R)-2-[4-(trifluoromethyl)phenyl]pyrrolidin-1-yl]pyrimidin-4-amine]
26 | > 5.00 | Fc1c(NCC2CCCCO2)ncnc1N1CCC[C@@H]1c1ccc(C(F)(F)F)cc1 (stereo partly drawn) [Example 155, 5-fluoro-N-(tetrahydropyran-2-ylmethyl)-6-[(2R)-2-[4-(trifluoromethyl)phenyl]pyrrolidin-1-yl]pyrimidin-4-amine]
27 | > 5.00 | CC(=O)N1CCOC([C@@H](CC(C)(C)C)Nc2ncnc(N3CCCC3c3ccc(C(F)(F)F)cc3)c2F)C1 (stereo partly drawn) [Example 71, 1-[2-[(1R)-1-[[5-fluoro-6-[2-[4-(trifluoromethyl)phenyl]pyrrolidin-1-yl]pyrimidin-4-yl]amino]-3,3-dimethyl-butyl]morpholin-4-yl]ethanone]
28 | > 5.00 | O=C1CC2(CCCN(c3ncnc(N4CCCC4c4ccc(C(F)(F)F)cc4)c3F)C2)CN1 (centres unmarked) [Example 134, 9-[5-fluoro-6-[2-[4-(trifluoromethyl)phenyl]pyrrolidin-1-yl]pyrimidin-4-yl]-3,9-diazaspiro[4.5]decan-2-one]

Row | SMILES | pIC50
29 | Cc1ccc(CNc2ncnc(N3CCCC3c3ccc(C)o3)c2F)cn1 (centres unmarked) [Example 150, 5-fluoro-6-[2-(5-methyl-2-furyl)pyrrolidin-1-yl]-N-[(6-methyl-3-pyridyl)methyl]pyrimidin-4-amine] | > 5.00
